In patent US9550774B2, “Dihydropyrido pyrimidine compounds as autotaxin inhibitors” (Eli Lilly and Company, priority 2013, dated 2017):

Key:
[1] = target: recombinant human autotaxin (Homo sapiens (Human), UniProt Q13822); test: Inhibition of Autotaxin as Measured by Choline Release; format: biochemical; settings: LPC 16:0 30 μM substrate, 37° C. for 1 hour, 4 parameter curve fit
Method: The purpose of this assay is to detect autotaxin inhibition using a choline release assay.
Test compound (10 mM stocks in 100% DMSO) is serially diluted in 100% DMSO resulting in 10 concentrations of 100× inhibitor in half area 96 well plates (Corning 3992). Each of these 10 wells in 100% DMSO is diluted 1:33.33 in assay buffer in round bottom 96 well plates (Fisher 12565502) resulting in 3× concentrations in well containing 3% DMSO. The assay buffer is 50 mM Tris pH8.0, 5 mM KCl, 1 mM CaCl2, 1 mM MgCl2, 0.01% TRITON™ X-100 (Sigma T9284) and 0.01% fatty acid free bovine serum albumin (Sigma A8806). A 20 μl aliquot of each 3× test compound is then added to black flat bottom 96 well plates (Corning 3991) in singlicate. A 20 μl aliquot per well of 3× recombinant human autotaxin, (Echelon, E-4000) (full length human autotaxin with a C-terminal His tag transfected into 293E cells and purified via nickel chelate and size exclusion chromatography) is then added to every well except for the no enzyme control wells. A 20 μl aliquot per well of assay buffer is added to the no enzyme control wells. […] The resorufin on the plates is measured with a SpectraMax Gemini EM fluorometer at excitation-emission wavelengths of 530-590 nm using SoftMax Pro 4.8 software. IC50s are calculated using 4 parameter curve fits. […]

endogenous autotaxin = endogenous autotaxin (Homo sapiens (Human), UniProt Q13822); test: Autotaxin Mediated Inhibition of LPA in the Presence of Human Plasma; format: biochemical; settings: 90% pooled human plasma, 3 hours at 37° C., total LPA by mass spec
Excerpt: The following assay is intended to measure autoaxin mediated inhibition of LPA. This assay is a tool that can be used to identify autotaxin-mediated LPA inhibitor compounds when it is used to test compounds that have been identified as autotaxin inhibitors. LPA biosynthesis through autotaxin is believed to the source of LPA for LPA1 mediated neuropathic pain. Makoto Inoue, et. al, “Autotaxin, a synthetic enzyme of lysophosphatidic acid (LPA), mediates the induction of nerve-injured neuropathic pain”, Molecular Pain, 2008, 4:6. Inhibition of the autotaxin mediated LPA biosynthesis is supported by the results of this assay.
Units of plasma from healthy human female donors collected in sodium heparin (Lampire Biologicals) are pooled, aliquoted and stored at −80° C. […] A 400 μl aliquot of extraction buffer (50% methanol, 49.9% acetonitrile, 0.1% acetic acid) containing LPA internal standards (50 ng/ml D5 deuterium LPA 16:0 and 50 ng/ml D5 deuterium LPA 18:0) is added to each well and the total LPA in each sample is determined by mass spec analysis. Percent inhibition of LPA is calculated according to the following formula: 100−(3 hour plasma+test compound−0 hour plasma no test compound control)/(3 hour plasma no test compound control−0 hour plasma no test compound control)×100
[formula] IC50 values are calculated using 4 parameter curve fitting. […]

O=C(c1cnn(Cc2c[nH]nn2)c1)N1CCc2nc(NC3Cc4ccccc4C3)ncc2C1 [Example 1, [2-(indan-2-ylamino)-7,8-dihydro-5H-pyrido[4,3-d]pyrimidin-6-yl]-[1-(1H-triazol-4-ylmethyl)pyrazol-4-yl]methanone]
IC50 [1]: < 1.7 nM
IC50 (endogenous autotaxin): 5.4 nM

O=C(c1cc(-c2cnn[nH]2)ccn1)N1CCc2nc(NC3Cc4ccccc4C3)ncc2C1 [Example 9, [2-(indan-2-ylamino)-7,8-dihydro-5H-pyrido[4,3-d]pyrimidin-6-yl]-[4-(1H-triazol-5-yl)-2-pyridyl]methanone]
IC50 [1]: < 1.7 nM
IC50 (endogenous autotaxin): 7 nM
